Patent US7342000B2, “Semisynthetic macrolide antibiotics of the azalide series” (GlaxoSmithKline istrazivacki center Zagreb, priority 2002, dated 2008)

Assays:
Assay in all cases: MIC by broth dilution (NCCLS M7-A2)
Assay type in all cases: cell-based
Conditions in all cases: 90% growth inhibition
E. coli ATCC 25922 = test system: E. coli ATCC 25922
Text: (§1) MIC levels for all compound were determinated on panel of susceptible, and resistant Gram positive bacterial strains (S. aureus, S. pneumoniae and S. pyogenes) and on Gram negative strains (E. coli, H. influenzae, […], M. catarrhalis).

E. faecalis ATCC 29212 = test system: E. faecalis ATCC 29212
Text: as §1

H. influenzae ATCC 49247 = test system: H. influenzae ATCC 49247
Text: as §1

[1] = test system: M. catarrhalis ATCC 23246
Text: as §1

S. aureus ATCC 13709 = test system: S. aureus ATCC 13709
Text: as §1

S. pneumoniae = test system: S. pneumoniae
Text: as §1

S. pyogenes M = test system: S. pyogenes M
Text: as §1

S. pyogenes iMLS = test system: S. pyogenes iMLS
Text: as §1

S. pyogenes = test system: S. pyogenes
Text: as §1

Row | Structure (SMILES) | MIK (E. coli ATCC 25922) [µg/mL] | MIK (E. faecalis ATCC 29212) [µg/mL] | MIK (H. influenzae ATCC 49247) [µg/mL] | MIK [1] [µg/mL] | MIK (S. aureus ATCC 13709) [µg/mL] | MIK (S. pneumoniae) | MIK (S. pyogenes M) [µg/mL] | MIK (S. pyogenes iMLS) [µg/mL] | MIK (S. pyogenes)
1 | CCOC(=O)CNC(=O)NCCCN1CC(C)CC(C)(O)C(OC2OC(C)CC(N(C)C)C2O)C(C)C(OC2CC(C)(OC)C(O)C(C)O2)C(C)C(=O)OC(CC)C(C)(O)C(O)C1C (stereo not drawn) [Example 9, 9-Deoxo-9-dihydro-9a-N-(N′-ethoxycarbonylmethylcarbamoyl-γ-aminopropyl)-9a-aza-9a-homoerithromycin A] | >64 | >64 | 32 | 4 | 8 | ≦0.125 μg/ml | 64 | 16 | ≦0.125 μg/ml
2 | CC[C@H]1OC(=O)[C@H](C)[C@@H](O[C@H]2C[C@@](C)(OC)[C@@H](O)[C@H](C)O2)[C@H](C)[C@@H](O[C@@H]2O[C@H](C)C[C@H](N(C)C)[C@H]2O)[C@](C)(O)C[C@@H](C)CN(CCCNC(=O)NC(C)c2cccc3ccccc23)[C@H](C)[C@@H](O)[C@]1(C)O (stereo partly drawn) [Example 10] | 64 | 16 | 2 | 4 | 16 | 8 µg/mL | 16 | 8 | ≦0.125 μg/ml
3 | CC[C@H]1OC(=O)[C@H](C)[C@@H](O[C@H]2C[C@@](C)(OC)[C@@H](O)[C@H](C)O2)[C@H](C)[C@@H](O[C@@H]2O[C@H](C)C[C@H](N(C)C)[C@H]2O)[C@](C)(O)C[C@@H](C)CN(CCCNC(=O)Nc2cc(OC)c(OC)c(OC)c2)[C@H](C)[C@@H](O)[C@]1(C)O [Example 11, 9-Deoxo-9-dihydro-9a-N-[N′-(3,4,5-trimethoxyphenyl)carbamoyl-γ-aminopropyl]-9a-aza-9a-homoerithromycin A] | >64 | >64 | 16 | 16 | 4 | ≦0.125 μg/ml | 64 | 32 | ≦0.125 μg/ml
4 | CC[C@H]1OC(=O)[C@H](C)[C@@H](O[C@H]2C[C@@](C)(OC)[C@@H](O)[C@H](C)O2)[C@H](C)[C@@H](O[C@@H]2O[C@H](C)C[C@H](N(C)C)[C@H]2O)[C@](C)(O)C[C@@H](C)CN(CCCNC(=O)Nc2ccc3ccccc3c2)[C@H](C)[C@@H](O)[C@]1(C)O [Example 12, 9-Deoxo-9-dihydro-9a-N-[N′-(2-naphtyl)carbamoyl-γ-aminopropyl]-9a-aza-9a-homoerithromycin A] | 32 | 8 | 2 | 0.5 | 8 | 16 µg/mL | 8 | 2 | ≦0.125 μg/ml
5 | CC[C@H]1OC(=O)[C@H](C)[C@@H](O[C@H]2C[C@@](C)(OC)[C@@H](O)[C@H](C)O2)[C@H](C)[C@@H](O[C@@H]2O[C@H](C)C[C@H](N(C)C)[C@H]2O)[C@](C)(O)C[C@@H](C)CN(CCCNC(=O)N(CCC#N)c2cccc3ccccc23)[C@H](C)[C@@H](O)[C@]1(C)O [Example 28, 9-Deoxo-9-dihydro-9a-N-[N′-(β-cyanoethyl)-N′-(1-naphtyl)carbamoyl-γ-aminopropyl]-9a-aza-9a-homoerithromycin A] | 8 | 4 | 1 | 0.25 | 1 | ≦0.125 μg/ml | 4 | 2 | ≦0.125 μg/ml
6 | CCC1OC(=O)C(C)C(OC2CC(C)(OC)C(O)C(C)O2)C(C)C(OC2OC(C)CC(N(C)C)C2O)C(C)(O)CC(C)CN(CCCNC(=S)N(CCC#N)Cc2ccccc2)C(C)C(O)C1(C)O (stereo not drawn) [Example 30, 9-Deoxo-9-dihydro-9a-N-[N′-(β-cyanoethyl)-N′-benzylthiocarbamoyl-γ-aminopropyl]-9a-aza-9a-homoerithromycin A] | 16 | 8 | 2 | 1 | 1 | ≦0.125 μg/ml | 4 | 2 | ≦0.125 μg/ml
7 | CC[C@H]1OC(=O)[C@H](C)[C@@H](O[C@H]2C[C@@](C)(OC)[C@@H](O)[C@H](C)O2)[C@H](C)[C@@H](O[C@@H]2O[C@H](C)C[C@H](N(C)C)[C@H]2O)[C@](C)(O)C[C@@H](C)CN(CCCNC(=S)N(CCC#N)c2cccc3ccccc23)[C@H](C)[C@@H](O)[C@]1(C)O [Example 31, 9-Deoxo-9-dihydro-9a-N-[N′-(β-cyanoethyl)-N′-(1-naphtyl)thiocarbamoyl-γ-aminopropyl]-9a-aza-9a-homoerithromycin A] | 8 | 4 | 2 | 2 | 4 | ≦0.125 μg/ml | 4 | 4 | ≦0.125 μg/ml
8 | CC[C@H]1OC(=O)[C@H](C)[C@@H](O[C@H]2C[C@@](C)(OC)[C@@H](O)[C@H](C)O2)[C@H](C)[C@@H](O[C@@H]2O[C@H](C)C[C@H](N(C)C)[C@H]2O)[C@](C)(O)C[C@@H](C)CN(CCCNC(=O)N(CCC#N)c2ccccc2C(F)(F)F)[C@H](C)[C@@H](O)[C@]1(C)O [Example 32, 9-Deoxo-9-dihydro-9a-N-[N′-(β-cyanoethyl)-N′-(2-(trifluoromethyl)phenyl)carbamoyl-γ-aminopropyl]-9a-aza-homoerithromycin A] | 32 | 64 | 16 | 8 | 4 | ≦0.125 μg/ml | 32 | 8 | ≦0.125 μg/ml
9 | CC[C@H]1OC(=O)[C@H](C)[C@@H](O[C@H]2C[C@@](C)(OC)[C@@H](O)[C@H](C)O2)[C@H](C)[C@@H](O[C@@H]2O[C@H](C)C[C@H](N(C)C)[C@H]2O)[C@](C)(O)C[C@@H](C)CN(CCCNC(=O)N(CCC#N)CCCc2ccccc2)[C@H](C)[C@@H](O)[C@]1(C)O [Example 33, 9-Deoxo-9-dihydro-9a-N-[N′-(β-cyanoethyl)-N′-(3-phenylpropyl)carbamoyl-γ-aminopropyl]-9a-aza-9a-homoerithromycin A] | 16 | 16 | 2 | 1 | 1 | ≦0.125 μg/ml | 8 | 4 | ≦0.125 μg/ml
10 | CC[C@H]1OC(=O)[C@H](C)[C@@H](O[C@H]2C[C@@](C)(OC)[C@@H](O)[C@H](C)O2)[C@H](C)[C@@H](O[C@@H]2O[C@H](C)C[C@H](N(C)C)[C@H]2O)[C@](C)(O)C[C@@H](C)CN(CCCNC(=O)N(CCC#N)c2ccc3ccccc3c2)[C@H](C)[C@@H](O)[C@]1(C)O [Example 38, 9-Deoxo-9-dihydro-9a-N-[N′-(β-cyanoethyl)-N′-(2-naphtyl)carbamoyl-γ-aminopropyl]-9a-aza-9a-homoerithromycin A] | 32 | 8 | 2 | 0.5 | 1 | ≦0.125 μg/ml | 8 | 2 | ≦0.125 μg/ml
